Measurements as given in ChEMBL document CHEMBL4507324 (2021).

Assays:
Settings in all cases: Compound concentration 100.0 nM
[1] = test system: Receptor-type tyrosine-protein kinase FLT3 (Homo sapiens), P36888 [K663Q]
[2] = target: Protein kinase C eta type (Homo sapiens) (UniProt P24723)
[3] = target: Ankyrin repeat and protein kinase domain-containing protein 1 (Homo sapiens) (UniProt Q8NFD2)
[4] = target: Calcium/calmodulin-dependent protein kinase type 1 (Homo sapiens) (UniProt Q14012)
[5] = target: Serine/threonine-protein kinase WNK2 (Homo sapiens) (UniProt Q9Y3S1)
[6] = target: Aurora kinase B (Homo sapiens) (UniProt Q96GD4)
[7] = target: Ephrin type-B receptor 6 (Homo sapiens) (UniProt O15197)
[8] = target: Calcium/calmodulin-dependent protein kinase type IV (Homo sapiens) (UniProt Q16566)
[9] = target: Tyrosine-protein kinase Fgr (Homo sapiens) (UniProt P09769)
[10] = target: Serine/threonine-protein kinase 35 (Homo sapiens) (UniProt Q8TDR2)
Chain of Serine/threonine-protein kinase 35 (Homo sapiens) (Q8TDR2 whole entry): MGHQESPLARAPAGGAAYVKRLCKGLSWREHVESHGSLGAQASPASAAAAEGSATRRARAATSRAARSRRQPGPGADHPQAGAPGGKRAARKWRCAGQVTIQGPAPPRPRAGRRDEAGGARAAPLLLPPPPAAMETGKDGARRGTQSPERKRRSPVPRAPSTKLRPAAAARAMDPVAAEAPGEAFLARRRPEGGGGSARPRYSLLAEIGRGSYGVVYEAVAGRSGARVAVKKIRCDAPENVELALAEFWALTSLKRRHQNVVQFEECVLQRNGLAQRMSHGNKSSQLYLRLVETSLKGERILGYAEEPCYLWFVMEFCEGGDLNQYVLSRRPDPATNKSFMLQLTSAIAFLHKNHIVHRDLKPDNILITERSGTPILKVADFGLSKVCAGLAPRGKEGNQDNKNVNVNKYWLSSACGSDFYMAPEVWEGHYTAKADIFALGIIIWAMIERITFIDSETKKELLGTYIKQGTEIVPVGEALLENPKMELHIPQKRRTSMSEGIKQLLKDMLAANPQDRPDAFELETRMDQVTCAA

[11] = target: Serine/threonine-protein kinase MARK2 (Homo sapiens) (UniProt Q7KZI7)
[12] = target: Dual specificity protein kinase CLK4 (Homo sapiens) (UniProt Q9HAZ1)
[13] = target: Serine/threonine-protein kinase PAK 3 (Homo sapiens) (UniProt O75914)
[14] = target: Ribosomal protein S6 kinase alpha-4 (Homo sapiens) (UniProt O75676)
[15] = test system: Phosphatidylinositol 4,5-bisphosphate 3-kinase catalytic subunit alpha isoform (Homo sapiens), P42336 [C420R]
[16] = target: Tyrosine-protein kinase Blk (Homo sapiens) (UniProt P51451)
[17] = test system: Tyrosine-protein kinase ABL1 (Homo sapiens), P00519 [F317L]
[18] = test system: Mast/stem cell growth factor receptor Kit (Homo sapiens), P10721 [V559D,V654A]
[19] = target: Serine/threonine-protein kinase D1 (Homo sapiens) (UniProt Q15139)
[20] = target: Phosphatidylinositol 3-kinase C2 domain-containing subunit gamma (Homo sapiens) (UniProt O75747)
[21] = target: Serine/threonine-protein kinase 25 (Homo sapiens) (UniProt O00506)
[22] = target: Activin receptor type-1 (Homo sapiens) (UniProt Q04771)
Chain of Activin receptor type-1 (Homo sapiens) (Q04771 whole entry): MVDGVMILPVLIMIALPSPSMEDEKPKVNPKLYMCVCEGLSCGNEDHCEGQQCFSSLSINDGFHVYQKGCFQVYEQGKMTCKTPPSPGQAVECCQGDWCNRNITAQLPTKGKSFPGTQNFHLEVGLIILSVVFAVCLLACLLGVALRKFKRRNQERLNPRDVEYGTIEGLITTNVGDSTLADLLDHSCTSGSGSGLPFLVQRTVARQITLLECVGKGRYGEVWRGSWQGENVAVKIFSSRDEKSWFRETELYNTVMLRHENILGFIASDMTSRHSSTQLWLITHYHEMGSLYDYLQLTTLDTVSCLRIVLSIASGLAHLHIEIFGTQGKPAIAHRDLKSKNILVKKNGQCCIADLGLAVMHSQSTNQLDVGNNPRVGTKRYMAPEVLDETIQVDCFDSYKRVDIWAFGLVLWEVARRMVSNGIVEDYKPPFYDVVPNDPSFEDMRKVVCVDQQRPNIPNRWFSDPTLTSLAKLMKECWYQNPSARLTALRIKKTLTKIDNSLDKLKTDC

[23] = target: Macrophage-stimulating protein receptor (Homo sapiens) (UniProt Q04912)
[24] = target: Mitogen-activated protein kinase kinase kinase 4 (Homo sapiens) (UniProt Q9Y6R4)
[25] = target: Rhodopsin kinase GRK7 (Homo sapiens) (UniProt Q8WTQ7)
Chain of Rhodopsin kinase GRK7 (Homo sapiens) (Q8WTQ7 whole entry): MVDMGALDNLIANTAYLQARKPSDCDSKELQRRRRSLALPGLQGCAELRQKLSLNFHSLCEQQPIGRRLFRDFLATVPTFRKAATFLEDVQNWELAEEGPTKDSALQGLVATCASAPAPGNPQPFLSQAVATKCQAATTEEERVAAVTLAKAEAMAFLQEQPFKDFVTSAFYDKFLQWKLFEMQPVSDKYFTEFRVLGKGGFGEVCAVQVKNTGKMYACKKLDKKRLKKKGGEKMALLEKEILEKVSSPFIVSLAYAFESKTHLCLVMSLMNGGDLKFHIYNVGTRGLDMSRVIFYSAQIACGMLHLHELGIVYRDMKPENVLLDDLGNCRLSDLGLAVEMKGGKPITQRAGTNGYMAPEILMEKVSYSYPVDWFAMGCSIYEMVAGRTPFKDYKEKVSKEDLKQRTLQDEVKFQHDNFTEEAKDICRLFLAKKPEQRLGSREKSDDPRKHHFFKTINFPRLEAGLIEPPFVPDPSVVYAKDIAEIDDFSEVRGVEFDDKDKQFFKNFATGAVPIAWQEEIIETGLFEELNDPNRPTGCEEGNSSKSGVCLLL

[26] = target: Receptor-type tyrosine-protein kinase FLT3 (Homo sapiens) (UniProt P36888)
[27] = test system: Tyrosine-protein kinase ABL1 (Homo sapiens), P00519 [F317I]
[28] = test system: Receptor-type tyrosine-protein kinase FLT3 (Homo sapiens), P36888 [D835Y]
[29] = target: Interleukin-1 receptor-associated kinase 3 (Homo sapiens) (UniProt Q9Y616)
[30] = target: Fibroblast growth factor receptor 1 (Homo sapiens) (UniProt P11362)
Chain of Fibroblast growth factor receptor 1 (Homo sapiens) (P11362 22-822 limits assumed): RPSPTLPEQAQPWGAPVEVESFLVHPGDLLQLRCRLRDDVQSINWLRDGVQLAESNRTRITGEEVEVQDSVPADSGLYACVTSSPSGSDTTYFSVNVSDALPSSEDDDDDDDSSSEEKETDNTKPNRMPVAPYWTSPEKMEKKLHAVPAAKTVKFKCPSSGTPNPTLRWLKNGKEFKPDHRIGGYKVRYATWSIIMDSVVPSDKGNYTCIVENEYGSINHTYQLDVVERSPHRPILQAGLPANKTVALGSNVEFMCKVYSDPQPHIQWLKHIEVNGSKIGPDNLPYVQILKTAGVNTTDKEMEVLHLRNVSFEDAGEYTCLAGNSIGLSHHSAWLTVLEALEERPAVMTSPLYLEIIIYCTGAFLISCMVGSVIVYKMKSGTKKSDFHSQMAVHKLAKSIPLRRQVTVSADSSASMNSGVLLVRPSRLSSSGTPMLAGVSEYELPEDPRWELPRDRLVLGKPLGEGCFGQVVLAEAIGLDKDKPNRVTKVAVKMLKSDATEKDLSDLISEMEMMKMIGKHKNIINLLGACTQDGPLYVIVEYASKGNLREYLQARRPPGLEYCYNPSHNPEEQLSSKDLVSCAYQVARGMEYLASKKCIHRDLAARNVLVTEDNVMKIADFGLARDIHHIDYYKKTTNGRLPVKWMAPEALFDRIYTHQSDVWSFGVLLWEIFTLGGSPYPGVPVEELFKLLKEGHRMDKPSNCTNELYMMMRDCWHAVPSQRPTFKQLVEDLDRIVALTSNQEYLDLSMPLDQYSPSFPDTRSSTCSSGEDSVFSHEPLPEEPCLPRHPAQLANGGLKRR

[31] = target: Casein kinase I isoform delta (Homo sapiens) (UniProt P48730)
Chain of Casein kinase I isoform delta (Homo sapiens) (P48730 whole entry, looked up, canonical isoform): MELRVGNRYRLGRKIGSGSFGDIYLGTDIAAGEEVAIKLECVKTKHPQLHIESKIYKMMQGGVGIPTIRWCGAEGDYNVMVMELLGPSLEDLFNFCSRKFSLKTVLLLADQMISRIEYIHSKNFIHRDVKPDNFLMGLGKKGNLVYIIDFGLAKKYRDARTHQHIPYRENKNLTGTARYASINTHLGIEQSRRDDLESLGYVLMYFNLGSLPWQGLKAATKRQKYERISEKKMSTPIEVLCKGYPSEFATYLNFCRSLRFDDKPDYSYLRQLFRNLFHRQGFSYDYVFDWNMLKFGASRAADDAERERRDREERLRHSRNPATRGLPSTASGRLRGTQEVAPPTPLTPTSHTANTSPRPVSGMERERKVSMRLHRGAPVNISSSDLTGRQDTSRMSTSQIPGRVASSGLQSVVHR

[32] = target: Serine/threonine-protein kinase 17A (Homo sapiens) (UniProt Q9UEE5)
Chain of Serine/threonine-protein kinase 17A (Homo sapiens) (Q9UEE5 whole entry): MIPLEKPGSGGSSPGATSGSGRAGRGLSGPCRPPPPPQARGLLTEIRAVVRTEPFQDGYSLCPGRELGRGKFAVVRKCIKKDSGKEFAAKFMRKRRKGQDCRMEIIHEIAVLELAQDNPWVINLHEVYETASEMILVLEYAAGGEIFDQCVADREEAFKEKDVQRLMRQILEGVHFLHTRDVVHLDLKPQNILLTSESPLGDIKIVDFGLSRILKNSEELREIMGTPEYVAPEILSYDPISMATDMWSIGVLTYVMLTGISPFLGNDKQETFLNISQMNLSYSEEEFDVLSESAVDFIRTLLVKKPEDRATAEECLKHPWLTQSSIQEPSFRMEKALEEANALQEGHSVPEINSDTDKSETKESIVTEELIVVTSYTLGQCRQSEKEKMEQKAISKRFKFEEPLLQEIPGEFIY

[33] = target: Serine/threonine-protein kinase 16 (Homo sapiens) (UniProt O75716)
[34] = target: Mitogen-activated protein kinase kinase kinase 19 (Homo sapiens) (UniProt Q56UN5)
[35] = test system: Epidermal growth factor receptor (Homo sapiens), P00533 [L858R,T790M]
[36] = target: Serine/threonine-protein kinase WNK1 (Homo sapiens) (UniProt Q9H4A3)
[37] = target: Ribosomal protein S6 kinase alpha-1 (Homo sapiens) (UniProt Q15418)
[38] = target: SNF-related serine/threonine-protein kinase (Homo sapiens) (UniProt Q9NRH2)
[39] = target: Serine/threonine-protein kinase TNNI3K (Homo sapiens) (UniProt Q59H18)
[40] = target: Cytoplasmic tyrosine-protein kinase BMX (Homo sapiens) (UniProt P51813)
[41] = target: Serine/threonine-protein kinase 26 (Homo sapiens) (UniProt Q9P289)
Chain of Serine/threonine-protein kinase 26 (Homo sapiens) (Q9P289 2-416 limits assumed): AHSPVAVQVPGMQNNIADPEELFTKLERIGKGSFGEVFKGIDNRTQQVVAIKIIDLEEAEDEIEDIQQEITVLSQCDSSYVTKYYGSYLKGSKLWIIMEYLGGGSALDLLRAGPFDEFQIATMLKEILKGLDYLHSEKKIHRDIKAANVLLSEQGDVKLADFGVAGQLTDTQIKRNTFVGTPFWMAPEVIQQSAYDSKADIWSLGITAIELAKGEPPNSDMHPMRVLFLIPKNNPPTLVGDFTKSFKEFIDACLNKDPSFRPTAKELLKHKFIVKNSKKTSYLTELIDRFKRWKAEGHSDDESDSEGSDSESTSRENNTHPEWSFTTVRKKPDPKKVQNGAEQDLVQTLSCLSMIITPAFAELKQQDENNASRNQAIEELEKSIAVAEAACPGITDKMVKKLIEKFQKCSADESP

[42] = target: Serine/threonine-protein kinase PknB (Mycobacterium tuberculosis) (UniProt P9WI81)
[43] = target: Serine/threonine-protein kinase Nek2 (Homo sapiens) (UniProt P51955)
[44] = target: Mitogen-activated protein kinase 9 (Homo sapiens) (UniProt P45984)
Chain of Mitogen-activated protein kinase 9 (Homo sapiens) (P45984 whole entry, looked up): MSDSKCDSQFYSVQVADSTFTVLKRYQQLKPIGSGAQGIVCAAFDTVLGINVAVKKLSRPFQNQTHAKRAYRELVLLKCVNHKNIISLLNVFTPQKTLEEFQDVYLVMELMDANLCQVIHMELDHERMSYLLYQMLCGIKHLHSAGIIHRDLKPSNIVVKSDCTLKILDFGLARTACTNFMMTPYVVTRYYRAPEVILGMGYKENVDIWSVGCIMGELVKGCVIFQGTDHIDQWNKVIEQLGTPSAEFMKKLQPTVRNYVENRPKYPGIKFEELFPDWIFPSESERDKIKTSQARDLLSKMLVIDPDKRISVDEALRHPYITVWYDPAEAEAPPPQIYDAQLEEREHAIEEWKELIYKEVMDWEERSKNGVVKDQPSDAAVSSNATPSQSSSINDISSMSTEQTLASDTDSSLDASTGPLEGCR

[45] = target: Hormonally up-regulated neu tumor-associated kinase (Homo sapiens) (UniProt P57058)
Chain of Hormonally up-regulated neu tumor-associated kinase (Homo sapiens) (P57058 whole entry): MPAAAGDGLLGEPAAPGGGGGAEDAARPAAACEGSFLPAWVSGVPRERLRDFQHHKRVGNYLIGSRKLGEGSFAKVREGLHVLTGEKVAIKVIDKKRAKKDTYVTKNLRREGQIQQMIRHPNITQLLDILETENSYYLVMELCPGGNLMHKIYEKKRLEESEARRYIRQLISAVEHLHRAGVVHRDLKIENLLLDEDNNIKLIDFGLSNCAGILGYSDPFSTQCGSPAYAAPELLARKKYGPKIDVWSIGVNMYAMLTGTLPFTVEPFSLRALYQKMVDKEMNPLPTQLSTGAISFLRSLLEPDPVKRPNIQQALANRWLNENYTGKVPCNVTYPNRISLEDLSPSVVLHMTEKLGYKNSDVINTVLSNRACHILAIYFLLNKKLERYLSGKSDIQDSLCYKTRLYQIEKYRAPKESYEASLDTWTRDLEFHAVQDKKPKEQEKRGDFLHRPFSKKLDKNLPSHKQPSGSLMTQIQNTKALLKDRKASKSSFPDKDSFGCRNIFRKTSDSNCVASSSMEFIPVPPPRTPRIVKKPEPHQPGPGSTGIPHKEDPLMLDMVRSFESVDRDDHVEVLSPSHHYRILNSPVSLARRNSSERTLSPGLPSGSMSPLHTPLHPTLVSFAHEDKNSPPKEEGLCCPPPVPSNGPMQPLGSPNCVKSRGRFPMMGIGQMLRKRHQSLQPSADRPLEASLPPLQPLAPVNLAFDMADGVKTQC

Q: Which residual activity [1] does the source give for `CS(=O)(=O)N1CCCC(NC(=O)[C@H](CCC2CCCCC2)NC(=O)c2ccc(CNc3ncnc4c3nnn4-c3ccccc3)cc2)C1` (stereo not given in full) [SR-301] here?
A: The residual activity was 94%.

Q: And the residual activity [2]?
A: The residual activity was 79%.

Q: What about the residual activity [3] of the same compound?
A: Its residual activity is 80%.

Q: What about the residual activity [4] of the same compound?
A: Its residual activity is 96%.

Q: And the residual activity [5]?
A: Its residual activity is 100%.

Q: What about the residual activity [6] of the same compound?
A: The residual activity was 100%.

Q: What about the residual activity [7] of the same compound?
A: The residual activity was 100%.

Q: What about the residual activity [8] of the same compound?
A: The residual activity was 98%.

Q: What about the residual activity [9] of the same compound?
A: The residual activity was 88%.

Q: And the residual activity [10]?
A: The residual activity was 100%.

Q: And the residual activity [11]?
A: Its residual activity is 100%.

Q: What about the residual activity [12] of the same compound?
A: The residual activity was 85%.

Q: What about the residual activity [13] of the same compound?
A: Its residual activity is 100%.

Q: And the residual activity [14]?
A: Its residual activity is 91%.

Q: What about the residual activity [15] of the same compound?
A: The residual activity was 89%.

Q: And the residual activity [16]?
A: The residual activity was 100%.

Q: What about the residual activity [17] of the same compound?
A: Its residual activity is 100%.

Q: What about the residual activity [18] of the same compound?
A: Its residual activity is 100%.

Q: What about the residual activity [19] of the same compound?
A: The residual activity was 91%.

Q: What about the residual activity [20] of the same compound?
A: Its residual activity is 81%.

Q: And the residual activity [21]?
A: Its residual activity is 90%.

Q: And the residual activity [22]?
A: Its residual activity is 88%.

Q: What about the residual activity [23] of the same compound?
A: The residual activity was 97%.

Q: And the residual activity [24]?
A: The residual activity was 75%.

Q: And the residual activity [25]?
A: Its residual activity is 100%.

Q: And the residual activity [26]?
A: The residual activity was 82%.

Q: And the residual activity [27]?
A: The residual activity was 88%.

Q: And the residual activity [28]?
A: The residual activity was 93%.

Q: And the residual activity [29]?
A: The residual activity was 100%.

Q: And the residual activity [30]?
A: Its residual activity is 91%.

Q: What about the residual activity [31] of the same compound?
A: Its residual activity is 96%.

Q: What about the residual activity [32] of the same compound?
A: The residual activity was 100%.

Q: And the residual activity [33]?
A: Its residual activity is 100%.

Q: And the residual activity [34]?
A: The residual activity was 92%.

Q: And the residual activity [35]?
A: The residual activity was 84%.

Q: And the residual activity [36]?
A: Its residual activity is 100%.

Q: And the residual activity [37]?
A: The residual activity was 100%.

Q: What about the residual activity [38] of the same compound?
A: Its residual activity is 81%.

Q: What about the residual activity [39] of the same compound?
A: Its residual activity is 63%.

Q: What about the residual activity [40] of the same compound?
A: Its residual activity is 79%.

Q: And the residual activity [41]?
A: The residual activity was 92%.

Q: And the residual activity [42]?
A: Its residual activity is 90%.

Q: And the residual activity [43]?
A: The residual activity was 100%.

Q: What about the residual activity [44] of the same compound?
A: Its residual activity is 83%.

Q: What about the residual activity [45] of the same compound?
A: Its residual activity is 100%.

Q: Which results are given for `CS(=O)(=O)N1CCCC(NC(=O)[C@H](CCC2CCCCC2)NC(=O)c2ccc(CNC(=O)c3cnc4ccccn34)cc2)C1` (stereo not given in full) [SR-302]?
A: residual activity [1]: 100%; residual activity [2]: 95%; residual activity [3]: 92%; residual activity [4]: 100%; residual activity [5]: 100%; residual activity [6]: 95%; residual activity [7]: 98%; residual activity [8]: 94%; residual activity [9]: 87%; residual activity [10]: 100%; residual activity [11]: 100%; residual activity [12]: 98%; residual activity [13]: 100%; residual activity [14]: 100%; residual activity [15]: 93%; residual activity [16]: 100%; residual activity [17]: 32%; residual activity [18]: 100%; residual activity [19]: 93%; residual activity [20]: 100%; residual activity [21]: 100%; residual activity [22]: 70%; residual activity [23]: 100%; residual activity [24]: 91%; residual activity [25]: 91%; residual activity [26]: 82%; residual activity [27]: 80%; residual activity [28]: 100%; residual activity [29]: 65%; residual activity [30]: 100%; residual activity [31]: 84%; residual activity [32]: 100%; residual activity [33]: 100%; residual activity [34]: 71%; residual activity [35]: 100%; residual activity [36]: 99%; residual activity [37]: 92%; residual activity [38]: 69%; residual activity [39]: 89%; residual activity [40]: 100%; residual activity [41]: 100%; residual activity [42]: 100%; residual activity [43]: 86%; residual activity [44]: 90%; residual activity [45]: 100%
